Patent publication US6737383B1, “Herbicidal oxadiazolidines” (priority 1999, dated 2004)

Assays:
cocklebur = assay: Test B pre/postemergence cocklebur; format: in vivo, Xanthium strumarium
Method in brief: (§1)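 Herbicidal effect was estimated by eye on a ten-point control scale after plants spent twelve to sixteen days in a greenhouse following soil or foliar treatment. Foliar sprays targeted plants at one to four leaves; all doses were formulated in a non-phytotoxic solvent with surfactant.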

soybean = assay: Test B pre/postemergence soybean; format: in vivo, Glycine max
Method in brief: as §1

velvetleaf = assay: Test B pre/postemergence velvetleaf; format: in vivo, Abutilon theophrasti; details: for Plant response rating, Velvetleaf: Rate 250 g/ha
Method in brief: as §1

surinam grass = assay: Test B pre/postemergence surinam grass; format: in vivo, Brachiaria decumbens
Method in brief: as §1

rape = assay: Test B pre/postemergence rape; format: in vivo, Brassica napus
Method in brief: as §1

blackgrass = assay: Test B pre/postemergence blackgrass; format: in vivo, Alopecurus myosuroides
Method in brief: as §1

sugar beet = assay: Test B pre/postemergence sugar beet; format: in vivo, Beta vulgaris; details: for Plant response rating, Sugarbeets: Rate 250 g/ha
Method in brief: as §1

bedstraw = assay: Test B pre/postemergence bedstraw; format: in vivo, Galium aparine; details: Preemergence
Method in brief: as §1

corn = assay: Test B pre/postemergence corn; format: in vivo, Zea mays
Method in brief: as §1

giant foxtail = assay: Test B pre/postemergence giant foxtail; format: in vivo, Setaria faberii
Method in brief: as §1

purple nutsedge = assay: Test B pre/postemergence purple nutsedge; format: in vivo, Cyperus rotundus
Method in brief: as §1

pigweed = assay: Test B pre/postemergence pigweed; format: in vivo, Amaranthus retroflexus
Method in brief: as §1

morningglory = assay: Test B pre/postemergence morningglory; format: in vivo, Ipomoea hederacea
Method in brief: as §1

[1] = Postemergence, Rate 62 g/ha, scale 0 to 10, 0 is no effect, 10 is complete control
[2] = Postemergence, Rate 125 g/ha, scale of 0 to 10 where 0 is no effect and 10 is complete control
[3] = Postemergence, Rate 250 g/ha, scale 0 to 10, 0 no effect, 10 complete control
[4] = Preemergence, Rate 62 g/ha, scale 0 to 10 (0 no effect, 10 complete control)
[5] = Preemergence, Rate 125 g/ha, scale 0 to 10 (0 no effect, 10 complete control)
[6] = Preemergence, Rate 500 g/ha, scale 0 (no effect) to 10 (complete control)
[7] = Rate 500 g/ha, Postemergence, scale 0 to 10, 0 no effect, 10 complete control
[8] = Preemergence, Rate 250 g/ha, scale of 0 to 10 where 0 is no effect and 10 is complete control
[9] = Rate 250 g/ha, Postemergence, scale 0 to 10, 0 is no effect, 10 is complete control
[10] = Preemergence, Rate 125 g/ha, 0 is no effect, 10 is complete control
[11] = Preemergence, scale of 0 to 10 where 0 is no effect and 10 is complete control
[12] = Postemergence, scale 0 to 10, 0 is no effect, 10 is complete control

SMILES: CCCn1c(=O)on(C(=O)N(c2ccc(F)cc2)C(C)C)c1=O [Compound 91]
- Cocklebur plant response rating (cocklebur; [1]): 3
- Cocklebur plant response rating (cocklebur; [2]): 3
- Cocklebur plant response rating (cocklebur; [3]): 4
- Cocklebur plant response rating (cocklebur; [4]): 0
- Plant response rating, Cocklebur (cocklebur; [5]): 0
- Cocklebur plant response rating (cocklebur; [6]): 3
- Cocklebur plant response rating (cocklebur; [7]): 4
- Soybean plant response rating (soybean; [1]): 3
- Soybean plant response rating (soybean; [2]): 3
- Soybean plant response rating (soybean; [4]): 0
- Plant response rating, Soybean (soybean; [5]): 0
- Plant response rating, Soybean (soybean; [8]): 4
- Soybean plant response rating (soybean; [6]): 7
- Plant response rating, Soybean (soybean; [9]): 4
- Soybean plant response rating (soybean; [7]): 5
- Velvetleaf plant response rating (velvetleaf; [1]): 0
- Velvetleaf plant response rating (velvetleaf; [2]): 0
- Velvetleaf plant response rating (velvetleaf; [4]): 6
- Velvetleaf plant response rating (0 to 10 scale) (velvetleaf; [10]): 6
- Plant response rating, Velvetleaf (velvetleaf; [11]): 7
- Velvetleaf plant response rating (velvetleaf; [6]): 8
- Plant response rating, Velvetleaf (velvetleaf; [12]): 3
- B. signalgrass plant response rating (surinam grass; [1]): 4
- B. signalgrass plant response rating (surinam grass; [3]): 8
- B. signalgrass plant response rating (surinam grass; [4]): 7
- Plant response rating, B. signalgrass (surinam grass; [5]): 10
- Plant response rating, B. signalgrass (surinam grass; [8]): 10
- B. signalgrass plant response rating (surinam grass; [6]): 10
- B. signalgrass plant response rating (surinam grass; Rate 125 g/ha, Postemergence, scale 0 to 10, 0 no effect, 10 complete control): 4
- B. signalgrass plant response rating (surinam grass; Rate 500 g/ha, Postemergence, scale of 0 to 10 where 0 is no effect and 10 is complete control): 8
- Rape plant response rating (rape; [1]): 2
- Rape plant response rating (rape; [2]): 3
- Rape plant response rating (rape; [3]): 4
- Rape plant response rating (rape; [4]): 7
- Plant response rating, Rape (rape; [5]): 8
- Plant response rating, Rape (rape; [8]): 10
- Rape plant response rating (rape; [6]): 10
- Rape plant response rating (rape; [7]): 10
- Blackgrass plant response rating (blackgrass; [1]): 8
- Blackgrass plant response rating (blackgrass; [2]): 8
- Blackgrass plant response rating (blackgrass; [3]): 8
- Blackgrass plant response rating (blackgrass; [4]): 10
- Plant response rating, Blackgrass (blackgrass; [5]): 10
- Plant response rating, Blackgrass (blackgrass; [8]): 10
- Blackgrass plant response rating (blackgrass; [6]): 10
- Blackgrass plant response rating (blackgrass; [7]): 8
- Sugarbeets plant response rating (sugar beet; [1]): 3
- Sugarbeets plant response rating (sugar beet; [2]): 6
- Sugarbeets plant response rating (sugar beet; [4]): 7
- Sugarbeets plant response rating (0 to 10 scale) (sugar beet; [10]): 7
- Plant response rating, Sugarbeets (sugar beet; [11]): 9
- Sugarbeets plant response rating (sugar beet; [6]): 10
- Plant response rating, Sugarbeets (sugar beet; [12]): 6
- Sugarbeets plant response rating (sugar beet; [7]): 6
- Bedstraw plant response rating (bedstraw; Rate 62 g/ha, scale 0 to 10 (0 no effect, 10 complete control)): 0
- Plant response rating, Bedstraw (bedstraw; Rate 125 g/ha, scale 0 to 10 (0 no effect, 10 complete control)): 1
- Plant response rating, Bedstraw (bedstraw; Rate 250 g/ha, scale of 0 to 10 where 0 is no effect and 10 is complete control): 5
- Bedstraw plant response rating (bedstraw; Rate 500 g/ha, scale 0 (no effect) to 10 (complete control)): 8
- Corn plant response rating (corn; [1]): 2
- Corn plant response rating (corn; [2]): 2
- Corn plant response rating (corn; [3]): 3
- Corn plant response rating (corn; [4]): 3
- Plant response rating, Corn (corn; [5]): 6
- Plant response rating, Corn (corn; [8]): 8
- Corn plant response rating (corn; [6]): 9
- Corn plant response rating (corn; [7]): 5
- Giant foxtail plant response rating (giant foxtail; [1]): 8
- Giant foxtail plant response rating (giant foxtail; [2]): 8
- Giant foxtail plant response rating (giant foxtail; [3]): 8
- Giant foxtail plant response rating (giant foxtail; [4]): 10
- Plant response rating, Giant foxtail (giant foxtail; [5]): 10
- Plant response rating, Giant foxtail (giant foxtail; [8]): 10
- Giant foxtail plant response rating (giant foxtail; [6]): 10
- Giant foxtail plant response rating (giant foxtail; [7]): 9
- Nutsedge plant response rating (purple nutsedge; [1]): 0
- Nutsedge plant response rating (purple nutsedge; [2]): 0
- Nutsedge plant response rating (purple nutsedge; [3]): 0
- Nutsedge plant response rating (purple nutsedge; [4]): 0
- Plant response rating, Nutsedge (purple nutsedge; [5]): 0
- Plant response rating, Nutsedge (purple nutsedge; [8]): 0
- Nutsedge plant response rating (purple nutsedge; [7]): 0
- Redroot pigweed plant response rating (pigweed; [1]): 1
- Redroot pigweed plant response rating (pigweed; [2]): 4
- Redroot pigweed plant response rating (pigweed; [4]): 6
- Plant response rating, Redroot pigweed (pigweed; [5]): 9
- Plant response rating, Redroot pigweed (pigweed; [8]): 10
- Redroot pigweed plant response rating (pigweed; [6]): 10
- Plant response rating, Redroot pigweed (pigweed; [9]): 6
- Redroot pigweed plant response rating (pigweed; [7]): 8
- Morningglory plant response rating (morningglory; [1]): 7
- Morningglory plant response rating (morningglory; [2]): 7
- Morningglory plant response rating (morningglory; [3]): 8
- Morningglory plant response rating (morningglory; [4]): 0
- Plant response rating, Morningglory (morningglory; [5]): 0
- Plant response rating, Morningglory (morningglory; [8]): 4
- Morningglory plant response rating (morningglory; [6]): 6
- Morningglory plant response rating (morningglory; [7]): 9
